Data taken from PubChem BioAssay (NCI).
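Protocol summary: plate cells (96-well), add compound at 5 concentrations, incubate 48 h, interpolate endpoints linearly. The concentration for 50% growth inhibition is given as GI50. The concentration for full growth arrest is given as TGI.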

Assays:
Test in all cases: NCI anticancer screen, dose series, 48 h
786-0 renal = tested on: 786-0 renal
A498 renal = tested on: A498 renal
A549 NSCLC = tested on: A549 NSCLC
ACHN renal = tested on: ACHN renal
BT-549 breast = tested on: BT-549 breast
CAKI-1 renal = tested on: CAKI-1 renal
CCRF-CEM leukemia = tested on: CCRF-CEM leukemia
COLO 205 colon = tested on: COLO 205 colon
DU-145 prostate = tested on: DU-145 prostate
EKVX NSCLC = tested on: EKVX NSCLC
HCC-2998 colon = tested on: HCC-2998 colon
HCT-116 colon = tested on: HCT-116 colon
HCT-15 colon = tested on: HCT-15 colon
HOP-62 NSCLC = tested on: HOP-62 NSCLC
HOP-92 NSCLC = tested on: HOP-92 NSCLC
HS 578T breast = tested on: HS 578T breast
HT29 colon = tested on: HT29 colon
IGROV1 ovarian = tested on: IGROV1 ovarian
K-562 leukemia = tested on: K-562 leukemia
KM12 colon = tested on: KM12 colon
LOX IMVI melanoma = tested on: LOX IMVI melanoma
M14 melanoma = tested on: M14 melanoma
MALME-3M melanoma = tested on: MALME-3M melanoma
MCF7 breast = tested on: MCF7 breast
MDA-MB-231 breast = tested on: MDA-MB-231 breast
MDA-MB-435 = tested on: MDA-MB-435
MOLT-4 leukemia = tested on: MOLT-4 leukemia
NCI-H226 lung = tested on: NCI-H226 lung
NCI-H23 lung = tested on: NCI-H23 lung
NCI-H460 lung = tested on: NCI-H460 lung
NCI-H522 lung = tested on: NCI-H522 lung
NCI/ADR-RES ovarian = tested on: NCI/ADR-RES ovarian
OVCAR-3 ovarian = tested on: OVCAR-3 ovarian
OVCAR-4 ovarian = tested on: OVCAR-4 ovarian
OVCAR-5 ovarian = tested on: OVCAR-5 ovarian
OVCAR-8 ovarian = tested on: OVCAR-8 ovarian
PC-3 prostate = tested on: PC-3 prostate
RPMI-8226 leukemia = tested on: RPMI-8226 leukemia
RXF 393 renal = tested on: RXF 393 renal
SF-268 CNS = tested on: SF-268 CNS
SF-295 CNS = tested on: SF-295 CNS
SF-539 CNS = tested on: SF-539 CNS
SK-MEL-2 melanoma = tested on: SK-MEL-2 melanoma
SK-MEL-28 melanoma = tested on: SK-MEL-28 melanoma
SK-MEL-5 melanoma = tested on: SK-MEL-5 melanoma
SK-OV-3 ovarian = tested on: SK-OV-3 ovarian
SN12C renal = tested on: SN12C renal
SNB-19 CNS = tested on: SNB-19 CNS
SW-620 colon = tested on: SW-620 colon
T-47D breast = tested on: T-47D breast
TK-10 renal = tested on: TK-10 renal
U251 CNS = tested on: U251 CNS
UACC-257 melanoma = tested on: UACC-257 melanoma
UACC-62 melanoma = tested on: UACC-62 melanoma
UO-31 renal = tested on: UO-31 renal

## C=C1C(=O)O[C@H]2[C@H]1CC/C(COC(=O)CCSCCC(=O)OC/C1=C/CC[C@@]3(C)O[C@H]3[C@H]3OC(=O)C(=C)[C@@H]3CC1)=C\CC[C@@]1(C)O[C@@H]21
786-0 renal
  GI50: 0.904 µM
  TGI: 2.21 µM
A498 renal
  GI50: 1.7 µM
  TGI: 4.78 µM
A549 NSCLC
  GI50: 2.54 µM
  TGI: 7.56 µM
ACHN renal
  GI50: 0.658 µM
  TGI: 1.89 µM
BT-549 breast
  GI50: 1.29 µM
  TGI: 2.66 µM
CAKI-1 renal
  GI50: 1.62 µM
  TGI: 3.12 µM
CCRF-CEM leukemia
  GI50: 0.314 µM
  TGI: 1.25 µM
COLO 205 colon
  GI50: 0.558 µM
  TGI: 1.97 µM
DU-145 prostate
  GI50: 1.36 µM
  TGI: 2.71 µM
EKVX NSCLC
  GI50: 1.42 µM
  TGI: 3.39 µM
HCC-2998 colon
  GI50: 1.89 µM
  TGI: 3.52 µM
HCT-116 colon
  GI50: 0.206 µM
  TGI: 0.609 µM
HCT-15 colon
  GI50: 1.11 µM
  TGI: 2.46 µM
HOP-62 NSCLC
  GI50: 2.36 µM
  TGI: 7.94 µM
HOP-92 NSCLC
  GI50: 1.26 µM
  TGI: 2.7 µM
HS 578T breast
  GI50: 3.18 µM
  TGI: 24.5 µM
HT29 colon
  GI50: 0.496 µM
  TGI: 1.73 µM
IGROV1 ovarian
  GI50: 1.3 µM
  TGI: 3.25 µM
K-562 leukemia
  GI50: 0.371 µM
  TGI: 10.2 µM
KM12 colon
  GI50: 1.75 µM
  TGI: 3.52 µM
LOX IMVI melanoma
  GI50: 0.44 µM
  TGI: 1.6 µM
M14 melanoma
  GI50: 1.52 µM
  TGI: 3.35 µM
MALME-3M melanoma
  GI50: 1.12 µM
  TGI: 2.73 µM
MCF7 breast
  GI50: 0.418 µM
  TGI: 1.86 µM
MDA-MB-231 breast
  GI50: 1.09 µM
  TGI: 2.55 µM
MDA-MB-435
  GI50: 1.63 µM
  TGI: 4.19 µM
MOLT-4 leukemia
  GI50: 0.422 µM
  TGI: 2.12 µM
NCI-H226 lung
  GI50: 3 µM
  TGI: 8.96 µM
NCI-H23 lung
  GI50: 1.89 µM
  TGI: 4.2 µM
NCI-H460 lung
  GI50: 1.86 µM
  TGI: 4.21 µM
NCI-H522 lung
  GI50: 0.686 µM
  TGI: 2.29 µM
NCI/ADR-RES ovarian
  GI50: 3.21 µM
  TGI: 11 µM
OVCAR-3 ovarian
  GI50: 0.451 µM
  TGI: 1.69 µM
OVCAR-4 ovarian
  GI50: 1.66 µM
  TGI: 3.71 µM
OVCAR-5 ovarian
  GI50: 2.11 µM
  TGI: 4.21 µM
OVCAR-8 ovarian
  GI50: 1.57 µM
  TGI: 3.96 µM
PC-3 prostate
  GI50: 1.82 µM
  TGI: 4.8 µM
RPMI-8226 leukemia
  GI50: 0.383 µM
  TGI: 1.83 µM
RXF 393 renal
  GI50: 0.767 µM
  TGI: 2.15 µM
SF-268 CNS
  GI50: 1.63 µM
  TGI: 4.54 µM
SF-295 CNS
  GI50: 1.77 µM
  TGI: 3.94 µM
SF-539 CNS
  GI50: 1.2 µM
  TGI: 2.59 µM
SK-MEL-2 melanoma
  GI50: 2.18 µM
  TGI: 4.88 µM
SK-MEL-28 melanoma
  GI50: 1.39 µM
  TGI: 2.86 µM
SK-MEL-5 melanoma
  GI50: 1.64 µM
  TGI: 3.14 µM
SK-OV-3 ovarian
  GI50: 4.1 µM
  TGI: 13.8 µM
SN12C renal
  GI50: 1.35 µM
  TGI: 3.62 µM
SNB-19 CNS
  GI50: 2.43 µM
  TGI: 7.29 µM
SW-620 colon
  GI50: 0.556 µM
  TGI: 2.02 µM
T-47D breast
  GI50: 1.3 µM
  TGI: 3.21 µM
TK-10 renal
  GI50: 1.5 µM
  TGI: 2.98 µM
U251 CNS
  GI50: 1.39 µM
  TGI: 3.45 µM
UACC-257 melanoma
  GI50: 1.64 µM
  TGI: 3.6 µM
UACC-62 melanoma
  GI50: 1.7 µM
  TGI: 3.61 µM
UO-31 renal
  GI50: 1.07 µM
  TGI: 2.27 µM
